How the values were obtained:
[1] = target: Carbonic anhydrase 1 (Homo sapiens, UniProt P00915)
Description: Inhibitory activity against human cloned isoenzyme carbonic anhydrase I (hCA I), by esterase method.

[2] = target: Carbonic anhydrase 2 (Homo sapiens, UniProt P00918)
Description: Inhibitory activity against human cloned isoenzyme carbonic anhydrase II (hCA II), by esterase method.

Chain of Carbonic anhydrase 1 (P00915 whole entry): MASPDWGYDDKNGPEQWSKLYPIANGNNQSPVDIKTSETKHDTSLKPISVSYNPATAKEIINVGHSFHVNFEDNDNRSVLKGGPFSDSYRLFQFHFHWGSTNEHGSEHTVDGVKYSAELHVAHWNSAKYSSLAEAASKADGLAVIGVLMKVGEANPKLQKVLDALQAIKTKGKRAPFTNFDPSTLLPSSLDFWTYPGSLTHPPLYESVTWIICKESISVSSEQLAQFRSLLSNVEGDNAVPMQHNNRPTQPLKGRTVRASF

## COc1ccc(NS(N)(=O)=O)cc1
[1]
  Ki: 14 nM
[2]
  Ki: 11 nM

## NS(=O)(=O)N1CCCCCC1
[1]
  Ki: 163 nM
[2]
  Ki: 131 nM

## NS(=O)(=O)Nc1ccc(I)cc1
[1]
  Ki: 18 nM
[2]
  Ki: 17 nM

## NS(=O)(=O)Nc1ccc(Br)cc1
[1]
  Ki: 23 nM

## CCOC(=O)c1ccc(NS(N)(=O)=O)cc1
[1]
  Ki: 26 nM
[2]
  Ki: 19 nM

## NS(=O)(=O)N(C1CCCCC1)C1CCCCC1
[1]
  Ki: > 100000 nM
[2]
  Ki: > 100000 nM

## NS(=O)(=O)Nc1ccc(Cl)cc1
[1]
  Ki: 19 nM
[2]
  Ki: 15 nM

## CC(C)N(C(C)C)S(N)(=O)=O
[1]
  Ki: > 100000 nM
[2]
  Ki: > 100000 nM

## Cc1ccc(NS(N)(=O)=O)cc1
[1]
  Ki: 15 nM
[2]
  Ki: 13 nM

## NS(=O)(=O)NCc1ccccc1
[1]
  Ki: 133 nM
[2]
  Ki: 123 nM

## NS(=O)(=O)Nc1ccc([N+](=O)[O-])cc1
[1]
  Ki: 18 nM
[2]
  Ki: 13 nM

## NS(=O)(=O)Nc1cccc(C(=O)c2ccccc2)c1
[1]
  Ki: 62 nM
[2]
  Ki: 49 nM

## CCCCNS(N)(=O)=O
[1]
  Ki: 173 nM
[2]
  Ki: 148 nM

## NS(=O)(=O)NC1CCCCC1
[1]
  Ki: 164 nM
[2]
  Ki: 450 nM

## NS(=O)(=O)Nc1ccc(O)cc1
[1]
  Ki: 16 nM
[2]
  Ki: 12 nM

## CN(C)c1ccc(NS(N)(=O)=O)cc1
[1]
  Ki: 17 nM
[2]
  Ki: 21 nM

## NS(=O)(=O)N(Cc1ccccc1)Cc1ccccc1
[1]
  Ki: > 100000 nM
[2]
  Ki: 647 nM

## NS(=O)(=O)NC1C2CC3CC(C2)CC1C3 (stereo not given)
[1]
  Ki: 960 nM
[2]
  Ki: 890 nM

## CC(C)CN(CC(C)C)S(N)(=O)=O
[1]
  Ki: > 100000 nM
[2]
  Ki: > 100000 nM

## NS(=O)(=O)NCCSSCCNS(N)(=O)=O
[1]
  Ki: 149 nM
[2]
  Ki: 27 nM

## NS(=O)(=O)Nc1ccccc1 [PHENYLSULFAMIDE]
[1]
  Ki: 13 nM
